The text below walks through data of patent US7973075B2, “Kainate receptor-selective epimeric analogs of dysiherbaine” (priority 2007, dated 2011).

One assay concerns the target T1, GluR5 (Rattus norvegicus, UniProt P22756).
T1 construct: expressed in transfected cells; HEK 293 (patch clamp)
Briefly: Radioligand displacement ([3H]kainate), Example 1. It counts as binding. The protocol: (§1) Dysiherbaine (DH) was used as a template for generating novel KAR ligands. (See FIG. 1.) These included 8-deoxy and 9-deoxy analogs of neodysiherbaine (neoDH). (See FIG. 2.) The binding of these analogs to glutamate receptors was assessed by radioligand binding as follows. Membrane preparations from COS-7 or HEK-T/17 cells were isolated 2-3 days after transfection. Displacement assays were performed as described previously (Swanson et al., NEURON 1997; 19:913-26). Unlabeled marine toxin analogs were used to displace [^3H]kainate or [^3H]AMPA (PerkinElmer) from kainate and AMPA receptors, respectively. (See FIG. 2 and Table 1.)
(§2) Non-specific binding was defined in the presence of 1 mM glutamate. The effect of these analogs on electrophysiology was assessed as follows. HEK 293 cells were transfected with receptor cDNAs in combination with eGFP cDNA. Patch-clamp recordings from transfected cells were made 24-72 hours later using a fast application system described previously (Swanson et al., NEURON 1997; 19:913-26). (See FIG. 3.)
(§3) Additional epimer analogs were generated. These included 4-epi-neodysiherbaine, 8-epi-neodysiherbaine, 9-epi-neodysiherbaine, and 8,9-epi-neodysiherbaine. (See FIG. 4.) The binding of these analogs to glutamate receptors was assessed by radioligand binding as described above. (See FIG. 4 and Table 2.)
A general note: In a radioligand displacement assay an active substance lowers the binding of a labelled ligand.

The target in the next assay is T2, GluR6 (Rattus norvegicus, UniProt P42260).
T2 construct: expressed in transfected cells; HEK 293 (patch clamp)
T2 sequence (P42260 32-908): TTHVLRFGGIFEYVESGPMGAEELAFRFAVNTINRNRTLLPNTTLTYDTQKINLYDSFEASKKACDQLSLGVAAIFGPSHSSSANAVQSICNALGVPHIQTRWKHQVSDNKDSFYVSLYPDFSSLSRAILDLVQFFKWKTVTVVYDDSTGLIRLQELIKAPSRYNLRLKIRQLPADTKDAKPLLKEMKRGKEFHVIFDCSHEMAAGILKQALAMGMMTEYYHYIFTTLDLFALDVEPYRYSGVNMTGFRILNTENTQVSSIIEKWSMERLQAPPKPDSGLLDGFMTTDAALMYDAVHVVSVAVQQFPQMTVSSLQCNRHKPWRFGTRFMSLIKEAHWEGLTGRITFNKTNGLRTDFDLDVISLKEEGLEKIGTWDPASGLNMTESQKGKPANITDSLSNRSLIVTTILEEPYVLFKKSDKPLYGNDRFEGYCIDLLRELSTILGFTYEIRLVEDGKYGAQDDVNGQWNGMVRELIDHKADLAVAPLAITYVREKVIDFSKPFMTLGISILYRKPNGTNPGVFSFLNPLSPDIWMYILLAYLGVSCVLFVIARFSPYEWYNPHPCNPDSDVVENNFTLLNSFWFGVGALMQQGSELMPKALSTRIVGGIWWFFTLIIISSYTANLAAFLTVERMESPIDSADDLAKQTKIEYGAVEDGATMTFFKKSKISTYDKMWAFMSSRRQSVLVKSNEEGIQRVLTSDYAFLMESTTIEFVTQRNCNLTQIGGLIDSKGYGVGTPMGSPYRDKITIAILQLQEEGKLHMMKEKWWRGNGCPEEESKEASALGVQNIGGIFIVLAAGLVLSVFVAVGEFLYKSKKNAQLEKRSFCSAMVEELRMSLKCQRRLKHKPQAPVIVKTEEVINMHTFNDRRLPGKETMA
Briefly: Radioligand displacement ([3H]kainate), Example 1. It counts as binding. The procedure:
as §1, §2, §3

The next assay addresses T3, KA2 (Rattus norvegicus, UniProt Q63273).
T3 construct: expressed in transfected cells; host or cells: HEK-293-T/17
T3 sequence (Q63273 15-979): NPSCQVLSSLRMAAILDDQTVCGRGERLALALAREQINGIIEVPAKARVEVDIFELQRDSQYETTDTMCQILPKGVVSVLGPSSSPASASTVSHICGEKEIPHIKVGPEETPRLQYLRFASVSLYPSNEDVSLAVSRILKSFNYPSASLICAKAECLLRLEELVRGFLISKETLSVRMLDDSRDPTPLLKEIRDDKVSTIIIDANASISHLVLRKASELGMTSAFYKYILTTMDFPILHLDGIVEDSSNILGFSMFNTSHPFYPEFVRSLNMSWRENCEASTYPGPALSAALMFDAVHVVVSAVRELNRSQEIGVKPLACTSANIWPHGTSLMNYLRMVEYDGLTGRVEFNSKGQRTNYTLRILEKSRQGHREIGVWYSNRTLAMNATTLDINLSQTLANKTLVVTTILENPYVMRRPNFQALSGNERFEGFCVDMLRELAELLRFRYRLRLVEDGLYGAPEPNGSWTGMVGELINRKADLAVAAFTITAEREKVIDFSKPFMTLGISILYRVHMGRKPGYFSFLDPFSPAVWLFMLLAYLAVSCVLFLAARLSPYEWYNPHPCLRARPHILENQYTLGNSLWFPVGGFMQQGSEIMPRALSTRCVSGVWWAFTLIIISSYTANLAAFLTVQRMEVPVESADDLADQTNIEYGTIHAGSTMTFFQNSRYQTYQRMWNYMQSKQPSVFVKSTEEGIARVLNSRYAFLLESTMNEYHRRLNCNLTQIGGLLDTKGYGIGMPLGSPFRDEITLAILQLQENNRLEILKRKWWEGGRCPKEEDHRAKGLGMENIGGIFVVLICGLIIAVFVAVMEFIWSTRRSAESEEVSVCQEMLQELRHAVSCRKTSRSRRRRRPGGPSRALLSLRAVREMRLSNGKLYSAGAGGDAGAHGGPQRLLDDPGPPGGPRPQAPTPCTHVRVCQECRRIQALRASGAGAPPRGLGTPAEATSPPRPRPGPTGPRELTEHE
Kind of assay: Radioligand displacement ([3H]kainate), Example 1. It counts as binding. The protocol: as §1, §2, §3

Another assay concerns the target T4, GluR1 (Rattus norvegicus, UniProt P19490).
T4 construct: expressed in transfected cells; host or cells: COS-7 or HEK-T/17
Briefly: Radioligand displacement ([3H]AMPA), Example 1. It counts as binding. The protocol: as §1, §2, §3

The next assay deals with T5, GluR7 (Rattus norvegicus, UniProt P42264).
T5 construct: expressed in transfected cells; host or cells: COS-7 or HEK-T/17
T5 sequence (P42264 32-919): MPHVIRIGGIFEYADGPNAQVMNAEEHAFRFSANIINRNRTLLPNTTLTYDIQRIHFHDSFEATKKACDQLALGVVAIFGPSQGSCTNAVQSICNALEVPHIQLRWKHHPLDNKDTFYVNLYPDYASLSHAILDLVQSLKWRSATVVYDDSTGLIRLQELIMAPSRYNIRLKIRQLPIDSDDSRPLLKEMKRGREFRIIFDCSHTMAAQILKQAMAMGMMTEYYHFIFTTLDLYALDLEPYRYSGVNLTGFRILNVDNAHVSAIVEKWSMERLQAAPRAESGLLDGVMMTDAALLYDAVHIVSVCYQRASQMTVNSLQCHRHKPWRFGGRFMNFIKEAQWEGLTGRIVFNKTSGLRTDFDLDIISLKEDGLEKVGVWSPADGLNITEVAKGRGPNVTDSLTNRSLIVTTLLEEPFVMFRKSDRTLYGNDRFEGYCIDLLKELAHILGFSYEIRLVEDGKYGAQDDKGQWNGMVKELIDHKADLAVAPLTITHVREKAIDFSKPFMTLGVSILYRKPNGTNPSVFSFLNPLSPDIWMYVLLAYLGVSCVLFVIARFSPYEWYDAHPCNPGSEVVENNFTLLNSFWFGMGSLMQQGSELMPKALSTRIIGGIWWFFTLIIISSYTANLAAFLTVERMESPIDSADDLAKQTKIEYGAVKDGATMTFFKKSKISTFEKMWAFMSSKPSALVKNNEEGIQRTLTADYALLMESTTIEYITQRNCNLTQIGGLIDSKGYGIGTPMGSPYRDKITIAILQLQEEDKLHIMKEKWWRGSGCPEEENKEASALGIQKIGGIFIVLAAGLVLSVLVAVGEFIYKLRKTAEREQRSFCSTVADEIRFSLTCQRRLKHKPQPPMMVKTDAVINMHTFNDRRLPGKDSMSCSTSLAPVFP
Briefly: Radioligand displacement ([3H]kainate), Example 1. It counts as binding. The protocol:
as §1, §2, §3

Assay [1] deals with T6, other KAR and AMPAR subunits.
T6 construct: Ki values at other KAR and AMPAR subunits (all subunits except those named); other: estimated
Kind of assay: Radioligand binding, remaining subunits stated collectively, Example 2. To be noted: estimated; read-out: Ki values at other KAR and AMPAR subunits (all subunits except those named). The procedure:
(§4) Radioligand binding. Membrane preparations from HEK-293-T/17 cells were prepared and used in radioligand binding assays as described previously (Sanders et al., 2005). Unlabeled analogs were used to displace [3H]kainate (10-20 nM, PerkinElmer Life and Analytical Sciences, Boston, Mass.) or [3H]AMPA (20 nM, PerkinElmer Life and Analytical Sciences, Boston, Mass.) from KARs and AMPARs, respectively. Nonspecific binding was determined in the presence of 1 mM glutamate. After 1 hour incubation at 4° C., samples were harvested by rapid filtration onto Whatman GF/C membranes. Upon addition of scintillation fluid, membranes were incubated for 1 hour at room temperature. A Beckman LS5000TD scintillation counter was used for quantification (Beckman Coulter Inc., Fullerton, Calif.). Data were plotted and fit with a one-site competition curve with fixed minima and maxima using Prism 4 (GraphPad Software, Inc). Ki's were calculated with the Cheng-Prusoff equation using the determined IC5o values and the radioligand Kd. Data were plotted and fit with a one-site competition curve with fixed minima (0) and maxima (100) (Prism4, GraphPad Software, Inc.). Correlation analysis was performed with these binding data and the seizure activity of each analog, represented as ED50 values.
(§5) The pharmacological profiles of the Group I analogs, 8-deoxy-neoDH and 9-deoxyneoDH, were analyzed initially in radioligand binding experiments with expressed recombinant AMPA and kainate receptor subunits. Displacement of [3H]kainate from cell membranes with a range of analog concentrations yielded IC50 values that were then used to calculate Ki values for each analog/receptor combination. Both Group 1 analogs retained high affinity only for GluR5-2a KAR subunits (FIG. 8A). […] Weak binding to other KAR and AMPAR subunits was observed, with all Ki values estimated at >10 μM (n=3-5; Table 3, FIG. 8A).
(§6) For comparison, the Ki values for neoDH and MSVIII-19 are included in the table (Sanders et al., 2005). Removal of the C9 hydroxyl eliminated binding to all receptor subunits (Ki values estimated at >100 μM), with the exception of GluR5-2a KARs.

The test system of assay [2] is other KAR and AMPAR subunits. Described as above. The procedure: as §4, §5, §6
[3] abbreviates: Tables 1-2, membranes of transfected COS-7 or HEK-T/17 cells, read-out: GluR5 binding affinity (displacement of [3H]kainate).
Setting [4] is: Tables 1-2, read-out: GluR6 binding affinity (displacement of [3H]kainate).
Where [5] appears, read: Tables 1-2, read-out: KA2 binding affinity (displacement of [3H]kainate).
The mark [6] stands for this setting: Tables 1-2, read-out: GluR1 binding affinity (displacement of [3H]AMPA).
Where [7] appears, read: Tables 1-2, read-out: GluR7 binding affinity (displacement of [3H]kainate).

Like-named read-outs stand apart in the source and are kept apart here. Where only a bound is given, the exact number is not on record here.

T4 sequence (P19490 19-907 isoform P19490-2 limits assumed): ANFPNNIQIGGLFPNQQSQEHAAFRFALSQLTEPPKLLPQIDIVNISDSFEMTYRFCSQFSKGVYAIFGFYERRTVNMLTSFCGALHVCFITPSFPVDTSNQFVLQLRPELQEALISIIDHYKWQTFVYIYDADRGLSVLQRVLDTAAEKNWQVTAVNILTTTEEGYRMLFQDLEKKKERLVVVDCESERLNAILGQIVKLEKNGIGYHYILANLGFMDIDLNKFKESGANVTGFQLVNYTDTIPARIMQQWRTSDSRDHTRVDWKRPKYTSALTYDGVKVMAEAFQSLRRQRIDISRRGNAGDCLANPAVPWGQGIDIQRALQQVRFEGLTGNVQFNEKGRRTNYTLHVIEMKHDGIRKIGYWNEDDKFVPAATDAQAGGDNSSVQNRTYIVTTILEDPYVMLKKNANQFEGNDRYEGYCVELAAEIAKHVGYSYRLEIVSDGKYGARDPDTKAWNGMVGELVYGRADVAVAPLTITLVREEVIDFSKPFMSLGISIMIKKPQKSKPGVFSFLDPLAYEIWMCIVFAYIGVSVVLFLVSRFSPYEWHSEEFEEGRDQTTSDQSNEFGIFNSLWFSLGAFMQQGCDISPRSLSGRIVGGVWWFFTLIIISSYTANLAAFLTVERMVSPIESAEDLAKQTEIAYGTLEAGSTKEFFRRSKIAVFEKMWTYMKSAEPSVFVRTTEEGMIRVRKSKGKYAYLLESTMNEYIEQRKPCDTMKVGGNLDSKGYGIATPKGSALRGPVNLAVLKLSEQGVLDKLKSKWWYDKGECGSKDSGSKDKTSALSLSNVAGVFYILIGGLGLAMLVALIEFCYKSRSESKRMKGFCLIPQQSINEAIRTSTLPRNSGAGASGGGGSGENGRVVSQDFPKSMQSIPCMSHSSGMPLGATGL
T1 sequence (P22756 with tags, fused parts or gaps isoform P22756-2): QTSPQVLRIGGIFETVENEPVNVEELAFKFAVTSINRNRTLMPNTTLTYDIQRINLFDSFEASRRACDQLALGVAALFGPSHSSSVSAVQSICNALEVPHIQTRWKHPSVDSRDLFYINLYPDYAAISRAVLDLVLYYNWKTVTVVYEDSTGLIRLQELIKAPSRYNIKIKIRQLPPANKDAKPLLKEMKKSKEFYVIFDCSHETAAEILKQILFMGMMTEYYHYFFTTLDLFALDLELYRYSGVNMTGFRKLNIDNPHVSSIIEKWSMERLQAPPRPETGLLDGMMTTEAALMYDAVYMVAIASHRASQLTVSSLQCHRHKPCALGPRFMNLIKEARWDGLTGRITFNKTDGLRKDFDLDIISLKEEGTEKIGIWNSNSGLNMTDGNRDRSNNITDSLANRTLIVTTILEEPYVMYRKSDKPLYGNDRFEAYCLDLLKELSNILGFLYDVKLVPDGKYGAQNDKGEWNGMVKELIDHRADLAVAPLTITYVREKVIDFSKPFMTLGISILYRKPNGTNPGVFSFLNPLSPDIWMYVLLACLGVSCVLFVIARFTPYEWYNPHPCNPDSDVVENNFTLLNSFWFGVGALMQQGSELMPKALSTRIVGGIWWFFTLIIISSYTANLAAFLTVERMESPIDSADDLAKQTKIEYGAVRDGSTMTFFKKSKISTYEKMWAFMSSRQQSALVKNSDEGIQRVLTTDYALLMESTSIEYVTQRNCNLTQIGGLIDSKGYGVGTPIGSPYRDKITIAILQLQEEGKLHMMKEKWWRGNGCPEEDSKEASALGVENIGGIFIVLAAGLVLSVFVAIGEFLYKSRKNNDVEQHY

`NC(CC1(C(=O)O)CC2OCC(O)C(O)C2O1)C(=O)O` (stereo not drawn) [8-epi-neoDH, 8-epi-neodysiherbaine]: the Ki at GluR5 (setting [3]) was 0.034 µM; at GluR6 (setting [4]) it was 22 µM; on KA2 (setting [5]), greater than 100 µM; on GluR1 (setting [6]), 17 µM.

With `N[C@@H](C[C@]1(C(=O)O)C[C@H]2OC[C@@H](O)C[C@H]2O1)C(=O)O` [8-deoxy-neoDH], the Ki on GluR5 was 0.0011 µM; at GluR6, 76 µM; on GluR7 it was 21 µM; at KA2, 36 µM; at GluR1, greater than 100 µM; in assay [1] it was greater than 10 µM.

For the compound `N[C@@H](C[C@]1(C(=O)O)C[C@H]2OCC[C@@H](O)[C@H]2O1)C(=O)O` [9-deoxy-neoDH], the Ki at GluR5 (setting [3]) was 0.168 µM; at GluR6 (setting [4]), greater than 100 µM; on GluR7 (setting [7]), greater than 100 µM; on KA2 (setting [5]) it was greater than 100 µM; at GluR1 (setting [6]), greater than 100 µM; in assay [1], greater than 100 µM.

For the compound `N[C@@H](C[C@@]1(C(=O)O)CC2OCC(O)C(O)C2O1)C(=O)O` (single isomer, unassigned) [4-epi-neoDH, 4-epi-neodysiherbaine], the “binding to other KA and AMPAR subunits” value in assay [2] is recorded as “weakly displaced radioligand”.

Consider `NC(CC1(C(=O)O)CC2OCC(O)C(O)C2O1)C(=O)O` (stereo not drawn) [9-epi-neoDH, 9-epi-neodysiherbaine], for which the Ki on GluR5 (setting [3]) was 0.296 µM; on GluR6 (setting [4]) it was greater than 100 µM; on GluR7 (setting [7]), greater than 100 µM; at KA2 (setting [5]), greater than 100 µM; on GluR1 (setting [6]) it was greater than 100 µM. Also, in assay [2], the “binding to other KA and AMPAR subunits” value is “inactive at other subunits”.

With `NC(CC1(C(=O)O)CC2OCC(O)C(O)C2O1)C(=O)O` (stereo not drawn) [8,9-epi-neoDH, 8,9-epi-neodysiherbaine], the Ki on GluR5 (Table 2, read-out: GluR5 binding affinity (displacement of [3H]kainate)) was 48 µM; on GluR6 (setting [4]), greater than 100 µM; on GluR7 (setting [7]), greater than 100 µM; on KA2 (setting [5]), greater than 100 µM; on GluR1 (setting [6]), greater than 100 µM. For the same compound, in assay [2], the “binding to other KA and AMPAR subunits” value was “effectively eliminated affinity for all receptor subunits”.

Take `N[C@@H](C[C@@]1(C(=O)O)CC2OCC(O)C(O)C2O1)C(=O)O` (single isomer, unassigned) [2,4-epi-neoDH, 2,4-epi-neodysiherbaine]: the Ki in assay [1] was greater than 100 µM.
